Source: ChEMBL document CHEMBL2074370, “Are MDCK cells transfected with the human MDR1 gene a good model of the human intestinal mucosa?” (Pharm Res, 2002)

Tests used:
[1] = test system: CC[C@]1(O)C[C@@H]2CN(CCc3c([nH]c4ccccc34)[C@@](C(=O)OC)(c3cc4c(cc3OC)N(C)[C@H]3[C@@](O)(C(=O)OC)[C@H](OC(C)=O)[C@]5(CC)C=CCN6CC[C@]43[C@@H]65)C2)C1; experiment: TP_TRANSPORTER: transepithelial transport (basal to apical) in MDR1-expressing MDCK cells; type: functional, cell-based
[2] = molecular target: ATP-dependent translocase ABCB1 (Homo sapiens, UniProt P08183); experiment: TP_TRANSPORTER: inhibition of Digoxin transepithelial transport (basal to apical) in MDR1-expressing MDCK cells; type: functional, cell-based
Chain of ATP-dependent translocase ABCB1 (P08183 whole entry): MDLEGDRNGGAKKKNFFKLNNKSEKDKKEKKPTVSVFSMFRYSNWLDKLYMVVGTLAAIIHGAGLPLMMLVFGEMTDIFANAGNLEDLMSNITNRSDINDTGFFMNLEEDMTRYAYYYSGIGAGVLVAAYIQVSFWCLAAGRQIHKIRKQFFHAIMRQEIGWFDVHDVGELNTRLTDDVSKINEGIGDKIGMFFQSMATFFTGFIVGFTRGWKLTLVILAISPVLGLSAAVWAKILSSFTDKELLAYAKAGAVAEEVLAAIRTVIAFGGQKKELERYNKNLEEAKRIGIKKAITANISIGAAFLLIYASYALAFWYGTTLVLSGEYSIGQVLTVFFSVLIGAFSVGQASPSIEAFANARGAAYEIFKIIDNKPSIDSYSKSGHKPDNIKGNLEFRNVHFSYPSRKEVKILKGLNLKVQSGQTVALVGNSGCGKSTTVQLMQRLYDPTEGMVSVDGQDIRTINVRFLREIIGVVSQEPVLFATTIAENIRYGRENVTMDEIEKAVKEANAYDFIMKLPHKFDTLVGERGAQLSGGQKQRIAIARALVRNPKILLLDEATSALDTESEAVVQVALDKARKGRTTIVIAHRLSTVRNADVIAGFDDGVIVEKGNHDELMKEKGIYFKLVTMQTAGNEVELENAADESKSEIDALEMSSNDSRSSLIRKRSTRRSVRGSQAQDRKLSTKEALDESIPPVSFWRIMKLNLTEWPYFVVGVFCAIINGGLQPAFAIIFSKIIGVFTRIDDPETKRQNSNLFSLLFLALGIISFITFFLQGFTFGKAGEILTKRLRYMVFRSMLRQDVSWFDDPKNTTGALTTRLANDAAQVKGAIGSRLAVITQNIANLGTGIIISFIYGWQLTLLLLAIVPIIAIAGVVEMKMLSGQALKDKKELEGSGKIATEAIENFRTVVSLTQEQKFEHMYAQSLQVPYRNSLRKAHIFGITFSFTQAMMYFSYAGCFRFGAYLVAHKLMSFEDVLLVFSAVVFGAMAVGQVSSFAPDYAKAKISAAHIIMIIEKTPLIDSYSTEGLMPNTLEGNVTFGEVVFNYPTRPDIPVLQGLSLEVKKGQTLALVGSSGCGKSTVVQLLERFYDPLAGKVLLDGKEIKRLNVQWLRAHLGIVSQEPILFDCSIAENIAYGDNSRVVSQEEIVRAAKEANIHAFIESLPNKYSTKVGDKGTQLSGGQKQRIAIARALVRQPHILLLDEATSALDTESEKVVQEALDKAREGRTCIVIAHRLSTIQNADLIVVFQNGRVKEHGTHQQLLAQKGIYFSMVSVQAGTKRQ

| Ki [2] | Compound | Km [1] |
| --- | --- | --- |
| – | ATP-dependent translocase ABCB1 (Homo sapiens) | 253 µM |
| 111 µM | COc1cccc2c1C(=O)c1c(O)c3c(c(O)c1C2=O)C[C@@](O)(C(C)=O)C[C@@H]3O[C@H]1C[C@H](N)[C@H](O)[C@H](C)O1 [DAUNORUBICIN] | – |
| 11.5 µM | COC(=O)[C@H]1[C@H]2C[C@@H]3c4[nH]c5cc(OC)ccc5c4CCN3C[C@H]2C[C@@H](OC(=O)c2cc(OC)c(OC)c(OC)c2)[C@@H]1OC [RESERPINE] | – |
| 213 µM | CC[C@]1(O)C[C@H]2CN(CCc3c([nH]c4ccccc34)[C@@](C(=O)OC)(c3cc4c(cc3OC)N(C=O)[C@H]3[C@@](O)(C(=O)OC)[C@H](OC(C)=O)[C@]5(CC)C=CCN6CC[C@]43[C@@H]65)C2)C1 [VINCRISTINE] | – |
